The target in one assay is TLR8 (Homo sapiens (Human), UniProt Q9NR97). As to the kind of experiment: TLR8 human peripheral blood mononuclear cell (PBMC) cell-based assay (Compound A as agonist; TNFα and IL12p40 readout). Particulars: human PBMCs, TLR8 agonist Compound A at 800 nM, 6 hours, antagonist potency; read-out: TLR-8 EC50.
In the next assay the target is TLR7 (Homo sapiens (Human), UniProt Q9NYK1). As to the kind of experiment: TLR7 human peripheral blood mononuclear cell (PBMC) cell-based assay (GS-986 as agonist; IL-6 and IFNα readout). The conditions noted are these: human PBMCs, TLR7 agonist GS-986 at 400 nM, 6 hours, antagonist potency; read-out: TLR-7 EC50. In outline: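 IL-6 and IFNα released into supernatant were quantified by electrochemiluminescence immunoassay. Before that, human PBMCs at 100,000 per well received a 10-point antagonist titration for 1 h, then TLR7 agonist for 6 more hours, all at 37 °C, 5% CO2.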
TLR7, sequence (Q9NYK1 27-1049): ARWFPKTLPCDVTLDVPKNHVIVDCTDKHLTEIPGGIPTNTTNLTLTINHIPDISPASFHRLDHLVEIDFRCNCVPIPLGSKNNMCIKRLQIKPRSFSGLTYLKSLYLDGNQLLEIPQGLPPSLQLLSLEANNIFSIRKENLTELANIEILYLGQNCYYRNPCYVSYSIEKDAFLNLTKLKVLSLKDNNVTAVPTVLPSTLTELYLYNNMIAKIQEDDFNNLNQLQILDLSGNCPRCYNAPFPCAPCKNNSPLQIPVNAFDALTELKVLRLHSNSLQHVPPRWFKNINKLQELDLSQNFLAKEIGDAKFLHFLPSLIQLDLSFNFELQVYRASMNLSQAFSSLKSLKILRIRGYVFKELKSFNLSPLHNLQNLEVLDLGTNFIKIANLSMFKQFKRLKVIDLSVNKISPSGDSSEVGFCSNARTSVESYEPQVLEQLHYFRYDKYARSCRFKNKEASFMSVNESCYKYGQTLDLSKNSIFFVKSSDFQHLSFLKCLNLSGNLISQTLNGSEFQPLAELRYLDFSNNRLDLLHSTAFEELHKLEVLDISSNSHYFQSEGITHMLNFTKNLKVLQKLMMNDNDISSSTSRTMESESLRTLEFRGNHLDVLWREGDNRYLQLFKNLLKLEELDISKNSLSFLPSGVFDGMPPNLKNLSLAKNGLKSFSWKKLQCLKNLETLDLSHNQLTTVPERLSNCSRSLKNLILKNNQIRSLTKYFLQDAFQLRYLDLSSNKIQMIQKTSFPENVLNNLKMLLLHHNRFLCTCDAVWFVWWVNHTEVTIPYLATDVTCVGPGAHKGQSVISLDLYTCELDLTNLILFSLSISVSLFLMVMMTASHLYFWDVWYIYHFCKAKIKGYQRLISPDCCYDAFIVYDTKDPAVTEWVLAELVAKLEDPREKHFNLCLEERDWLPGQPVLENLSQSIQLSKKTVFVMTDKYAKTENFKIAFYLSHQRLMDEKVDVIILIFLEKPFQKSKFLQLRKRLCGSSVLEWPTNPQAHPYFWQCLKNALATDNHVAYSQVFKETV

Some results are limits rather than exact numbers.

TLR8, sequence (Q9NR97 27-1041): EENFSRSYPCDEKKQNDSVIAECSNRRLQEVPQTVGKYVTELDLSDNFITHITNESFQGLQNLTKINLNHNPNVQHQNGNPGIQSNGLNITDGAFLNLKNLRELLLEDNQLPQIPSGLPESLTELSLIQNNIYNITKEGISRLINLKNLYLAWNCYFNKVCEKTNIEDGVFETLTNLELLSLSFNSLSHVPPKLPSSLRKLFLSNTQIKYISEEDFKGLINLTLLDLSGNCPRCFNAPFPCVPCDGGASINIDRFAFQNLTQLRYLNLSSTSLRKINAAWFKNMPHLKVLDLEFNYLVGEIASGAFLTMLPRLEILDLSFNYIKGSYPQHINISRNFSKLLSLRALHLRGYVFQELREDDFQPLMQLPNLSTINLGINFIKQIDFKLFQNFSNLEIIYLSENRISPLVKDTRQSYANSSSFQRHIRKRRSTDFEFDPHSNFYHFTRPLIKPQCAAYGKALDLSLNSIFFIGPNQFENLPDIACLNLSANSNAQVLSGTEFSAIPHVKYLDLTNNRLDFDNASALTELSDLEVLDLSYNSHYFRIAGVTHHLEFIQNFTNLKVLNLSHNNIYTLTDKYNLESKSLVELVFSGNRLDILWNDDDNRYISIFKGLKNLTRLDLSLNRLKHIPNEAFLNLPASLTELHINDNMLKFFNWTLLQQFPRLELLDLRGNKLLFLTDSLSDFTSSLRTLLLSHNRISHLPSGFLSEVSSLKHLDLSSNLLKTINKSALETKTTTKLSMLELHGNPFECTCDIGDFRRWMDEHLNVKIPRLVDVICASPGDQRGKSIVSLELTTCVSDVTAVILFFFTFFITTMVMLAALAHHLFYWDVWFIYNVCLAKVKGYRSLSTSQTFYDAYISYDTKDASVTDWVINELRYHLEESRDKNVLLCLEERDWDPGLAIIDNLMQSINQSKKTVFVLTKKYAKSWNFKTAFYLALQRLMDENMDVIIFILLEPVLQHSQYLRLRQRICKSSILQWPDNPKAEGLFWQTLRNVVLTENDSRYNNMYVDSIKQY

The EC50 is the concentration giving half of the maximal effect. With `Cc1c(-c2[nH]c3sc(C4CCN(C(=O)[C@H]5CNCCO5)CC4)c(C)c3c2C(C)C)cn2ncnc2c1C` [Example 110], the EC50 turned out to be 6.21 nM at TLR8 and 0.09 nM at TLR7.
For `Cc1c(-c2[nH]c3sc(-c4ccc(C5CCNCC5)cc4)c(C)c3c2C(C)C)cn2ncnc2c1C` [Example 111], the EC50 on TLR8 came out at 6.58 nM; on TLR7 it was 0.45 nM.
For `Cc1c(-c2[nH]c3sc(C4C[C@@H]5CN[C@H]4C5)c(C)c3c2C(C)C)cn2ncnc2c1C` (stereo partly drawn) [Example 112], in that order: 0.5 nM and 0.07 nM.
For `Cc1c(-c2[nH]c3sc(-c4ccc(C5CCN(CC(N)=O)CC5)cc4)c(C)c3c2C(C)C)cn2ncnc2c1C` [Example 113], in that order: 9.8 nM and 0.54 nM.
For `Cc1c(-c2[nH]c3sc(C4C[C@H]5C[C@@H]4N(CC(N)=O)C5)c(C)c3c2C(C)C)cn2ncnc2c1C` (stereo partly drawn) [Example 114], in that order: 2.71 nM and 0.44 nM.
With `Cc1c(-c2[nH]c3sc(-c4ccc(C5CNCCO5)cc4)c(C)c3c2C(C)C)cn2ncnc2c1C` (stereo not drawn) [Example 115], the results for the EC50 at TLR8 and at TLR7 were 9.38 nM and 0.24 nM, respectively.
Taken in the same sequence, the figures for `Cc1c(C2CCN(C(=O)C3(N4CCOCC4)CC3)CC2)sc2[nH]c(-c3cc(C)c4ncnn4c3)c(C(C)C)c12` [Example 116] were 27.4 nM and 0.39 nM.
For the compound `Cc1c(C2CCN(C(=O)[C@@H]3C[C@@H](F)CN3)CC2)sc2[nH]c(-c3cc(C)c4ncnn4c3)c(C(C)C)c12` [Example 117], the values for the EC50 on TLR8 and on TLR7 were 16.6 nM and 0.52 nM, respectively.
Taken in the same sequence, the figures for `Cc1c(C2CCN(C(=O)[C@@H]3C[C@H](F)CN3)CC2)sc2[nH]c(-c3cc(C)c4ncnn4c3)c(C(C)C)c12` [Example 118] were 15.2 nM and 0.24 nM.
Taken in the same sequence, the figures for `Cc1nnc(CN2C[C@@H]3C[C@H]2C[C@H]3c2sc3[nH]c(-c4cn5ncnc5c(C)c4C)c(C(C)C)c3c2C)o1` [Example 119] were 4.55 nM and 0.34 nM.
Regarding `Cc1noc(C)c1CN1C[C@@H]2C[C@H]1C[C@H]2c1sc2[nH]c(-c3cn4ncnc4c(C)c3C)c(C(C)C)c2c1C` [Example 120], the EC50 is 1.1 nM at TLR8 and 0.09 nM on TLR7.
Taken in the same sequence, the figures for `Cc1nc2c(C)cc(-c3[nH]c4sc([C@@H]5C[C@@H]6C[C@H]5CN6CC(N)=O)c(C)c4c3C(C)C)cn2n1` [Example 121] were 0.13 nM and below 0.05 nM.
With `Cc1c(C2CCC3(C2)CN(CC(N)=O)C3)sc2[nH]c(-c3cc(C)c4ncnn4c3)c(C(C)C)c12` (stereo not drawn) [Example 122], the EC50 is 1.63 nM at TLR8 and 0.38 nM at TLR7.
In the case of `Cc1c(C2CC3(CCNCC3)C2)sc2[nH]c(-c3cc(C)c4ncnn4c3)c(C(C)C)c12` [Example 123], the EC50 stood at 2.15 nM at TLR8 and 0.16 nM on TLR7.
As for `Cc1c(C2CC3(CCN(CC(N)=O)CC3)C2)sc2[nH]c(-c3cc(C)c4ncnn4c3)c(C(C)C)c12` [Example 124], the EC50 came to 3.22 nM on TLR8 and 0.3 nM at TLR7.
Regarding `Cc1cc(-c2[nH]c3sc([C@H]4C[C@@]5(CCNC5)C4)c(C)c3c2C(C)C)cn2ncnc12` [Example 125], the figures for the EC50 on TLR8 and at TLR7 were 1.5 nM and 0.33 nM, respectively.
For `Cc1cc(-c2[nH]c3sc([C@H]4C[C@@]5(CCN(CC(N)=O)C5)C4)c(C)c3c2C(C)C)cn2ncnc12` [Example 126], the values for the EC50 on TLR8 and at TLR7 were 1.74 nM and 0.24 nM, respectively.
Taken in the same sequence, the figures for `Cc1c(C2CCNC2)sc2[nH]c(-c3cc(C)c4ncnn4c3)c(C(C)C)c12` (stereo not drawn) [Example 127] were 1.52 nM and 0.21 nM.
Taken in the same sequence, the figures for `Cc1c(C2CCC3(CCNCC3)C2)sc2[nH]c(-c3cc(C)c4ncnn4c3)c(C(C)C)c12` (stereo not drawn) [Example 129] were 10.7 nM and 0.27 nM.
For `Cc1nc2c(C)cc(-c3[nH]c4sc(C5CCNCC5)c(C)c4c3C(C)C)cn2n1` [Example 131], in that order: 6.92 nM and 0.12 nM.
Turning to `Cc1cc(-c2[nH]c3sc([C@H]4C[C@]5(CCN(CC(N)=O)C5)C4)c(C)c3c2C(C)C)cn2ncnc12` [Example 132], the EC50 worked out at 0.54 nM at TLR8 and 0.1 nM at TLR7.
Taken in the same sequence, the figures for `Cc1c(C2CCC3(CCN(CC(N)=O)CC3)C2)sc2[nH]c(-c3cc(C)c4ncnn4c3)c(C(C)C)c12` (stereo not drawn) [Example 133] were 5.06 nM and 0.6 nM.
With `Cc1nc2c(C)cc(-c3[nH]c4sc(C5CCN(CC(N)=O)CC5)c(C)c4c3C(C)C)cn2n1` [Example 134], the results for the EC50 at TLR8 and at TLR7 were 12.6 nM and 0.74 nM, respectively.
Taken in the same sequence, the figures for `Cc1nc2c(C)cc(-c3[nH]c4sc(C5CCN(C(=O)[C@H]6COCCN6)CC5)c(C)c4c3C(C)C)cn2n1` [Example 135] were 27 nM and 0.28 nM.
Turning to `Cc1nc2c(C)cc(-c3[nH]c4sc(C5CCN(C(=O)[C@@H]6COCCN6)CC5)c(C)c4c3C(C)C)cn2n1` [Example 136], the EC50 at TLR8 was 17.9 nM; on TLR7, 0.68 nM.
As to `Cc1c(C2CC3(CCCNC3)C2)sc2[nH]c(-c3cc(C)c4ncnn4c3)c(C(C)C)c12` (stereo not drawn) [Example 137], the figures for the EC50 at TLR8 and on TLR7 were 1.71 nM and 0.73 nM, respectively.
For `Cc1c(C2CC3(CCCN3)C2)sc2[nH]c(-c3cc(C)c4ncnn4c3)c(C(C)C)c12` (stereo not drawn) [Example 138], in that order: 0.49 nM and 0.19 nM.
Taken in the same sequence, the figures for `Cc1c(-c2[nH]c3sc([C@@H]4C[C@@H]5C[C@H]4CN5CC(N)=O)c(C)c3c2C(C)C)cn2nc(Cl)nc2c1C` [Example 139] were 0.29 nM and 0.54 nM.
Taken in the same sequence, the figures for `Cc1c(C2CC3(CCCN3CC(N)=O)C2)sc2[nH]c(-c3cc(C)c4ncnn4c3)c(C(C)C)c12` (stereo not drawn) [Example 140] were 3.45 nM and 0.91 nM.
As for `Cc1cc(-c2[nH]c3sc([C@H]4C[C@@]5(CCCN(CC(N)=O)C5)C4)c(C)c3c2C(C)C)cn2ncnc12` [Example 141], the EC50 at TLR8 amounted to 10.6 nM; on TLR7, 0.42 nM.
For `Cc1cc(-c2[nH]c3sc([C@H]4C[C@]5(CCCN(CC(N)=O)C5)C4)c(C)c3c2C(C)C)cn2ncnc12` [Example 142], in that order: 7.47 nM and 2.31 nM.
Take `Cc1c(-c2[nH]c3sc(C4CCN(C(=O)[C@@H]5C[C@@H]6OCC[C@@H]6N5)CC4)c(C)c3c2C(C)C)cn2ncnc2c1C` [Example 143]: the EC50 at TLR8 was found to be 10.9 nM; at TLR7 it was 2.57 nM.
With `Cc1c(-c2[nH]c3sc(C4CCC5(CC4)CNCCO5)c(C)c3c2C(C)C)cn2ncnc2c1C` (stereo not drawn) [Example 144, 9-(5-(7,8-dimethyl-[1,2,4]triazolo[1,5-a]pyridin-6-yl)-4-isopropyl-3-methyl-6H-thieno[2,3-b]pyrrol-2-yl)-1-oxa-4-azaspiro[5.5]undecane], the EC50 at TLR8 turned out to be 2.03 nM; on TLR7 it was 0.25 nM.
Regarding `Cc1c([C@H]2C[C@H]3C[C@@H]2CN3CC(N)=O)sc2[nH]c(-c3cc(C)c4ncnn4c3)c(C(C)C)c12` [Example 145], the EC50 on TLR8 came out at 1.86 nM; on TLR7 it was 0.09 nM.
As to `Cc1c(-c2[nH]c3sc([C@@H]4C[C@@H]5C[C@H]4CN5C(=O)[C@H]4COCCN4)c(C)c3c2C(C)C)cn2ncnc2c1C` [Example 146], the EC50 at TLR8 amounted to 12.8 nM; at TLR7, 0.9 nM.
Consider `Cc1c(-c2[nH]c3sc([C@@H]4C[C@@H]5C[C@H]4CN5C(=O)[C@H]4C[C@@H](F)CN4)c(C)c3c2C(C)C)cn2ncnc2c1C` [Example 147], for which the EC50 at TLR8 stood at 16 nM; on TLR7, 0.23 nM.
In the case of `Cc1c(-c2[nH]c3sc([C@@H]4C[C@@H]5C[C@H]4CN5C(=O)[C@H]4C[C@H](F)CN4)c(C)c3c2C(C)C)cn2ncnc2c1C` [Example 148], the EC50 at TLR8 worked out at 15.9 nM; at TLR7, 0.51 nM.
Taken in the same sequence, the figures for `Cc1c(-c2[nH]c3sc([C@@H]4C[C@@H]5C[C@H]4CN5C(=O)[C@@H]4C[C@H](F)CN4)c(C)c3c2C(C)C)cn2ncnc2c1C` [Example 149] were 9.53 nM and 0.72 nM.
For `Cc1c(-c2[nH]c3sc([C@@H]4C[C@@H]5C[C@H]4CN5C(=O)[C@@H]4C[C@@H](F)CN4)c(C)c3c2C(C)C)cn2ncnc2c1C` [Example 150], in that order: 14.2 nM and 1.64 nM.
For `Cc1c(-c2[nH]c3sc(C4CC(C(=O)N5CCNCC5)C4)c(C)c3c2C(C)C)cn2ncnc2c1C` (stereo not drawn) [Example 151, (3-(5-(7,8-dimethyl-[1,2,4]triazolo[1,5-a]pyridin-6-yl)-4-isopropyl-3-methyl-6H-thieno[2,3-b]pyrrol-2-yl)cyclobutyl)(piperazin-1-yl)methanone], in that order: 0.99 nM and 0.26 nM.
Take `Cc1c(-c2[nH]c3sc([C@@H]4C[C@@H]5C[C@H]4CN5Cc4n[nH]c(=O)[nH]4)c(C)c3c2C(C)C)cn2ncnc2c1C` [Example 152]: the EC50 turned out to be 2.86 nM at TLR8 and 0.42 nM at TLR7.
With `Cc1c(-c2[nH]c3sc([C@@H]4C[C@@H]5C[C@H]4CN5C4(CC#N)CN(S(C)(=O)=O)C4)c(C)c3c2C(C)C)cn2ncnc2c1C` [Example 153], the EC50 came to 23.2 nM on TLR8 and 0.77 nM at TLR7.
Taken in the same sequence, the figures for `Cc1c(-c2[nH]c3sc([C@@H]4C[C@@H]5C[C@H]4CN5Cc4ccc(Br)cc4)c(C)c3c2C(C)C)cn2ncnc2c1C` [Example 154] were 0.85 nM and 0.44 nM.
For `Cc1c(-c2[nH]c3sc([C@@H]4C[C@@H]5C[C@H]4CN5CC(=O)N=S(C)(C)=O)c(C)c3c2C(C)C)cn2ncnc2c1C` [Example 155], in that order: 0.51 nM and below 0.05 nM.
As to `Cc1c(C2CCN(S(=O)(=O)N3CCNCC3)CC2)sc2[nH]c(-c3cc(C)c4ncnn4c3)c(C(C)C)c12` [Example 156], the figures for the EC50 on TLR8 and on TLR7 were 9.8 nM and below 0.05 nM, respectively.

(Values after patent US11661431B2, “Thienopyrrole compounds” (Gilead Sciences, Inc., priority 2021, dated 2023).)
